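Growth conditions: 96-well plates. Treatment: test compound, 48 hours, 5 concentrations. Analysis: linear interpolation between bracketing concentrations; unreached endpoints set to highest concentration. TGI: total growth inhibition.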
How the values were obtained:
Experiment in all cases: inhibition of tumour cell growth, NCI panel, 48 h
[1] = tested on: 786-0 renal
[2] = tested on: A498 renal
[3] = tested on: A549 NSCLC
[4] = tested on: ACHN renal
[5] = tested on: BT-549 breast
[6] = tested on: CAKI-1 renal
[7] = tested on: CCRF-CEM leukemia
[8] = tested on: COLO 205 colon
[9] = tested on: DU-145 prostate
[10] = tested on: EKVX NSCLC
[11] = tested on: HCC-2998 colon
[12] = tested on: HCT-116 colon
[13] = tested on: HCT-15 colon
[14] = tested on: HL-60(TB) leukemia
[15] = tested on: HOP-62 NSCLC
[16] = tested on: HOP-92 NSCLC
[17] = tested on: HS 578T breast
[18] = tested on: HT29 colon
[19] = tested on: IGROV1 ovarian
[20] = tested on: K-562 leukemia
[21] = tested on: KM12 colon
[22] = tested on: LOX IMVI melanoma
[23] = tested on: M14 melanoma
[24] = tested on: MALME-3M melanoma
[25] = tested on: MCF7 breast
[26] = tested on: MDA-MB-231 breast
[27] = tested on: MDA-MB-435
[28] = tested on: MDA-N
[29] = tested on: MOLT-4 leukemia
[30] = tested on: NCI-H226 lung
[31] = tested on: NCI-H23 lung
[32] = tested on: NCI-H460 lung
[33] = tested on: NCI-H522 lung
[34] = tested on: NCI/ADR-RES ovarian
[35] = tested on: OVCAR-3 ovarian
[36] = tested on: OVCAR-4 ovarian
[37] = tested on: OVCAR-5 ovarian
[38] = tested on: OVCAR-8 ovarian
[39] = tested on: PC-3 prostate
[40] = tested on: RPMI-8226 leukemia
[41] = tested on: RXF 393 renal
[42] = tested on: SF-268 CNS
[43] = tested on: SF-295 CNS
[44] = tested on: SF-539 CNS
[45] = tested on: SK-MEL-2 melanoma
[46] = tested on: SK-MEL-28 melanoma
[47] = tested on: SK-MEL-5 melanoma
[48] = tested on: SK-OV-3 ovarian
[49] = tested on: SN12C renal
[50] = tested on: SNB-19 CNS
[51] = tested on: SNB-75 CNS
[52] = tested on: SR leukemia
[53] = tested on: SW-620 colon
[54] = tested on: T-47D breast
[55] = tested on: TK-10 renal
[56] = tested on: U251 CNS
[57] = tested on: UACC-257 melanoma
[58] = tested on: UACC-62 melanoma
[59] = tested on: UO-31 renal

Measured: TGI

CC1(C)S[C@@H]2[C@H](NC(=O)C3(N)CCCCC3)C(=O)N2[C@H]1C(=O)O
> 100 µM: all assays above

O=C(/C=C/c1ccccc1)CCC1C(=O)c2ccccc2C1=O
not listed: [15] | [55]
> 100 µM: all other assays above
